Reference: patent US20250000991A1, “NECTIN-4 ANTIBODIES AND ANTIBODY-DRUG CONJUGATES” (Eli Lilly and Company, priority 2023, published 2025)
Square brackets hold non-standard residues; d marks the D form. Peptide text beside a SMILES is read from it. * marks the point of attachment. Dolaproine = CO[C@@H]([C@@H]1CCCN1)[C@@H](C)C(=O)O; Dil = CC[C@H](C)[C@H](NC)[C@@H](CC(=O)O)OC; X1 = C[C@@H](N*)[C@@H](O)c1ccccc1; NMeV = CN[C@H](C(=O)O)C(C)C

Columns and labels:
[1] = test system: UMUC3-Luc-GFP Nectin-4 negative cells; assay: Free payload cytotoxicity on UMUC3-Luc-GFP cells; type: cell-based; conditions: 5 days
Protocol: (§1) UMUC3 cell line was engineered to express human Nectin4 and two clonal populations with different levels of expression were selected. In flat white clear-bottom 96-well plates, UMUC3-hNectin4 clone F7/UMUC3-Luc-GFP cells were mixed and seeded at a total of 1500 cells/well/100 ul with a ratio of 4:1 in assay medium (MEM+1× GlutaMax+10% Heat Inactivated Fetal Bovine Serum+1 mM sodium pyruvate). UMUC3-hNectin4 clone E3/UMUC3-Luc-GFP cells were mixed and seeded at a total of 2100 cells/well/100 ul with a ratio of 6:1 in assay medium. UMUC3-Luc-GFP cells were negative for nectin-4 expression. Plates were incubated at 37° C. with 5% CO2 overnight. Next day, ADCs were added at final working concentration from 100 nM, 1:3 serially diluted in assay medium. To assess sensitivity of cell line to free payload, free payloads were added at final working concentration from 200 nM, 1:3 serially diluted in assay medium. […] Plates were read after 5-days treatment using ONE-Glo™ Luciferase Assay System. […] Luminescence was read in the SpectraMax M5e. […] Percentage of UMUC3-Luc-GFP killing was calculated against no treatment as 0%. Data was graphed and analyzed using Graphpad Prism version 9.5.1. IC50 was determined via log(inhibitor) vs. response (three parameters) curve fitting for bystander activity and log(inhibitor) vs. response (four parameters) for free payload cytotoxicity.

[2] = test system: HEKα cells (normal human epidermal keratinocytes); assay: Binding to normal human epidermal keratinocytes by flow cytometry; conditions: ADC (Formula XI, DAR of 8); read-out: EC50 of cell surface binding to normal human epidermal keratinocytes
Protocol: To characterize binding of nectin-4 antibodies and ADCs of the present disclosure to normal human epidermal keratinocytes, HEKα cells were plated in 150×25 mm tissue culture dish (Corning Inc.) in complete culture medium (Dermal Cell Basal Medium+Keratinocytes Growth Kit, ATCC) at 1 million per well to achieve confluency within 24 hours. The differentiation process progressed for an additional 5-10 days. Following the induction of differentiation, cells were dissociated with 2 mg/mL Type XI Collagenase from Clostridium histolyticum (Sigma-Aldrich) at 37° C. Cells were counted and aliquoted to a V-bottom polypropylene 96-well plate (Thermo Scientific Nunc) at 10^5 cells/well. Antibodies and ADCs were added to cells starting at 300 nM, 1:4 serially diluted in assay buffer (1×DPBS containing 2% FBS, Gibco). Cells were incubated on a microplate shaker at 4° C., protected from light for 1 hour. After incubation, cells were washed twice with 200 uL/well of assay buffer and stained with Alexa Fluor 647-conjugated AffiniPure F(ab')2 Fragment Goat Anti-Human IgG (H+L) (Jackson ImmunoResearch) at 1:1,000 dilution. Following an hour incubation at 4° C., cells were washed twice with 200 uL/well of assay buffer and stained with Zombie Green fixable viability dye (BioLegend) at 1:2,000 dilution. Cells were incubated on a microplate shaker at 4° C. for 20 minutes. […]

[3] = test system: T24-human Nectin-4-eGFP clone 3 cells; assay: Internalization: degradation of nectin-4-eGFP signal by fluorescence imaging; type: cell-based; conditions: ADC (Formula XI, DAR of 8), 24 h time course
Protocol: T24 cell line was engineered to express human Nectin-4-eGFP and clonally selected for high expression. […] human Nectin-4-eGFP clone 3 cells were plated at 12,000 cells per well, in black clear-bottom CellCarrier Ultra 384-well microplates (Perkin Elmer) in complete culture medium (McCoy's 5A, modified, +10% FBS+Glutamax+400 μg/mL G418+Pen/Strep). Plates were covered with AeraSeal™ Sealing Films and incubated overnight at 37° C., 5% CO2. Next day, antibodies and ADCs were added to cells, starting at 300 nM at 1:3 dilution. Plates were covered with AeraSeal™ and placed in incubator for imaging on PerkinElmer Opera Phenix Screening System over a 24 h time course. Data were processed and analyzed in Harmony and Microsoft Excel and graphed in GraphPad Prism.

[4] = test system: T24-human nectin-4 clone 108; assay: ADC cytotoxicity (CellTiter-Glo), high nectin-4 expression line; type: cell-based; conditions: T24 Nectin-4 clone 108, 5 days, ADC Formula XI DAR 8
Protocol: Plates were read after 5 days treatment using CellTiter-Glo Luminescent Cell Viability Assay. 100 ul/well CellTiter-Glo reagent were incubated in plates at room temperature for 10 min. Luminescence was read in the SpectraMax M5e. RLUs (Relative Light Units) were obtained with SoftMax Pro 5.4. Percentage of cell killing was calculated against no treatment as 0%. Data was graphed and analyzed using GraphPad Prism version 9.5.1. IC50 was determined via log(inhibitor) vs. response-variable slope (four parameters) curve fitting.
T24 cell line was engineered to express human nectin-4 and clonally selected. T24-human nectin-4 clone 108, a high expression clonal cell line, was seeded in culture medium (McCoy's 5A+1× GlutaMax+10% Heat Inactivated Fetal Bovine Serum+400 μg/ml G418). ADCs were added at final working concentration from 200 nM, 1:4 serially diluted in culture medium for 5 days.

[5] = test system: NCI-H1781 cells; assay: ADC cytotoxicity (CellTiter-Glo), low nectin-4 expression line; type: cell-based; conditions: NCI H1781, 5 days, ADC Formula XI DAR 8
Protocol: NCI-H1781 cells, a low expression cell line, were seeded in white clear-bottom 96-well tissue culture plates in culture medium (RPMI 1640+1× GlutaMax+10% Heat Inactivated Fetal Bovine Serum+1 mM sodium pyruvate). Cells were incubated at 37° C. with 5% CO2 overnight. Next day, ADCs were added at final working concentration from 100 nM, 1:3 serially diluted in culture medium. Plates were covered with Breathe-Easy® sealing membrane and incubated at 37° C. with 5% CO2. Plates were read after 5 days treatment using CellTiter-Glo Luminescent Cell Viability Assay. 100 ul/well CellTiter-Glo reagent were incubated in plates at room temperature for 10 min. Luminescence was read in the SpectraMax M5e. RLUs (Relative Light Units) were obtained with SoftMax Pro 5.4. Percentage of cell killing was calculated against no treatment as 0%. Data was graphed and analyzed using GraphPad Prism version 9.5.1. IC50 was determined via log(inhibitor) vs. response-variable slope (four parameters) curve fitting.

[6] = test system: T24 mScarlet clone 5 Nectin-4 negative cells; assay: Bystander killing of T24-mScarlet clone 5 cells co-cultured with T24-human nectin4 clone108 (imaging); type: cell-based; conditions: T24-mScarlet clone5 : T24-human nectin4 clone108 9:1, 5 days, ADC Formula XI DAR 8; read-out: IC50 of bystander effect
Protocol: T24 cell line was engineered to express mScarlet and clonally selected to test in bystander assay. T24-mScarlet clone5 and T24-human nectin4 clone108 were mixed and seeded at a total of 1000 cells/well/100 ul with a ratio of 9:1 in culture medium (McCoy's 5A+1× GlutaMax+10% Heat Inactivated Fetal Bovine Serum+400 μg/ml G418) in flat clear bottom 96-well plates. T24 mScarlet clone 5 cells were negative for nectin-4 expression. Plates were incubated at 37° C. with 5% CO2 overnight. Next day, ADCs were added at final working concentration from 50 nM, 1:4 serially diluted in culture medium. Plates were covered with Breathe-Easy® sealing membrane, placed in BioSpa and scanned in Cytation5 every day for 5 days.
Images of T24-mScarlet cells were captured and analyzed by Cytation5 with Gen5 Image Prime 3.11. Percentage of T24-mScarlet cell killing was calculated by decreased Integrated Intensity (area×mean intensity), normalized to zero hour and no treatment. Data was graphed and analyzed using GraphPad Prism version 9.5.1. IC50 was determined via log(inhibitor) vs. response-variable slope (four parameters) curve fitting.

[7] = test system: T24-human nectin4 clone147 cells; assay: In vitro CDC assay with human serum complement; type: cell-based; conditions: nectin-4 expressing T24 cell line
Protocol: T24 cell line was engineered to express high level of human Nectin4 and clonally selected. T24-human nectin4 clone147 cells were added in white clear-bottom 96-well tissue culture plates in assay medium (McCoy's 5A+1× GlutaMax+10% Heat Inactivated Fetal Bovine Serum) and incubated in the incubator at 37° C. with 5% CO2 overnight. Next day, 50 ul/well antibodies were added at final working concentration from 200 nM, 1:3 serially diluted in assay medium and incubated at 37° C. with 5% CO2 for one hour. Diluted human serum complement (1:3) was then added at 50 ul/well in assay medium and incubated at 37° C. with 5% CO2 for 3 hours. Plate was read using CellTiter-Glo Luminescent Cell Viability Assay. 100 ul/well CellTiter-Glo reagent were incubated in plates at room temperature for 10 min. Luminescence was read in the SpectraMax M5e. RLUs (Relative Light Units) were obtained with SoftMax Pro 5.4. Percentage of cell killing was calculated against no treatment. Data was graphed and analyzed using GraphPad Prism version 9.5.1.

[8] = test system: UM-UC-3 Nectin4 clone F7 xenograft; assay: Tumor xenograft, high nectin-4 expression; type: in vivo, mice (nu/nu); conditions: UMUC3 Nectin-4 clone F7 xenograft, single dose 2 mg/kg, day 40
Protocol: In order to test the efficacy of the nectin-4 ADCs of the present disclosure, which have effector null mutations in the Fc region, and to compare to the enfortumab antibody, which has wildtype Fc and in an ADC with the same payload background as the ones of this disclosure, two tumor xenograft models with either high or moderate nectin-4 expression were tested as described. Immune compromised female mice (nu/nu) between 5-8 weeks of age with weight 18-20 grams were implanted unilaterally on the right flank with UM-UC-3 Nectin4 clone F7 cells with high nectin-4 expression. […] The test articles were given at a single dose (2 mg/kg) formulated with 5% dextrose. Tumors were measured biweekly until Day 40.

[9] = test system: MDA-MB-468 xenograft; assay: Tumor xenograft, moderate nectin-4 expression; type: in vivo, NSG mice; conditions: MDAMB468 xenograft, single dose 2 mg/kg, day 71
Protocol: In a separate study, female NSG mice between 5-6 weeks of age were injected subcutaneously with MDA-MB-468 cells with moderate Nectin-4 expression. When tumors reached approximately 150-250 mm^3; animals were matched by tumor volume into treatment or control groups and dosing initiated (Day 0, n=8 per group). The test articles were given at a single dose (2 mg/kg) formulated with 5% Dextrose. Tumors were measured biweekly until Day 71.
In both models, a 2 mg/kg single dose treatment of either the nectin-4 ADCs (exemplified herein with each of Abs1-8 conjugated as in Formula XI, and with a DAR of 8) or benchmark enfortumab ADC (enfortumab conjugated with Formula XI, and with a DAR of 8) was used. Tumor growth was measured at day 40 for UMUC3 Nectin-4 clone F7 and day 71 for MDAMB468 xenografts.

[10] = test system: T24-hNectin-4 clone 14 cells (MMAE-resistant); assay: ADC cytotoxicity in MMAE-resistant cells (CellTiter-Glo); type: cell-based, human; conditions: T24-hNectin-4 clone 14, 5 days
Protocol: In T24 nectin-4 cells that are resistant to MMAE, two nectin-4 ADCs described herein and enfortumab vedotin were tested for activity. T24-hNectin-4 clone 14 cells were seeded at 500 per well in 100 ul culture medium, in white clear-bottom 96-well tissue culture plates and incubated at 37° C. with 5% CO2 overnight. The next day each ADC was serially diluted 1:4, with a starting concentration of 400 nM, in culture medium. One-hundred ul of each ADC dilution was added per well and the plates were covered with a Breathe-Easy® sealing membrane and incubated at 37° C. with 5% CO2. After 5 days of treatment, the plates were removed from the incubator, placed at room temperature for 15 minutes, and 100 ul medium per well was removed. One hundred ul of CellTiter-Glo reagent was added per well and the plates were incubated at room temperature for 10 minutes. RLUs (Relative Light Units) were obtained by SpectraMax M5e with SoftMax Pro 5.4. Percentage of cell killing was calculated against DMSO only (for free payloads) or no treatment (for ADCs) as 0%. Data was graphed and analyzed using Graphpad Prism version 9.5.1. IC50s were determined via log(inhibitor) vs. response-variable slope (four parameters) curve fitting.

[11] = test system: UMUC3-Luc-GFP + UMUC3-hNectin4 clone F7; assay: Bystander killing of UMUC3-Luc-GFP cells co-cultured with UMUC3-hNectin4 clone F7 (ONE-Glo); type: cell-based, human
Protocol: as §1, with “overnight.” for “overnight. Next day, ADCs were added at final working concentration from 100 nM, 1:3 serially diluted in assay medium. To assess sensitivity of cell line to free payload, free payloads were added at final working concentration from 200 nM, 1:3 serially diluted in assay medium.”, “ONE-GloTM” for “ONE-Glo™”, “cytotoxicity. […] In experiments run as essentially described herein, the bystander effects of four nectin-4 ADCs described herein and enfortumab vedotin were evaluated using the UMUC3-hNectin-4 cloneF7/UMUC3-Luciferase-GFP cell pair. […]” for “cytotoxicity.”

[12] = test system: UMUC3-Luc-GFP + UMUC3-hNectin4 clone E3; assay: Bystander killing of UMUC3-Luc-GFP cells co-cultured with UMUC3-hNectin4 clone E3 (ONE-Glo); type: cell-based, human; conditions: UMUC3-Luc-GFP + UMUC3-hNectin4 clone E3, ratio 6:1, 5 days; read-out: IC50 of bystander effect
Protocol: as §1

CC[C@H](C)[C@@H]([C@@H](CC(=O)N1CCC[C@H]1[C@H](OC)[C@@H](C)C(=O)N[C@H](C)[C@@H](O)c1ccccc1)OC)N(C)C(=O)[C@@H](NC(=O)[C@@H](NC)C(C)C)C(C)C [MMAE] (H-[NMeV]V[Dil][Dolaproine]-X1)
IC50 [1]: 0.38 nM

Enfortumab
EC50 [2]: 0.03 nM
% activity (max GFP signal loss compared to enfortumab mAb (100%)) [3]: 119.9%
EC50 ([3]; read-out: EC50 of nectin-4-eGFP signal loss): 2.55 nM
IC50 [4]: 0.0747 nM
IC50 [5]: 0.0409 nM
IC50 [6]: 0.0593 nM
CDC potential [7]: did not show CDC potential

Enfortumab ADC: benchmark: enfortumab conjugated with Formula XI, and with a DAR of 8 [reference compound]
Mean tumor volume [8]: 812.22 mm^3
Mean tumor volume [9]: 272.28 mm^3

Enfortumab vedotin [reference compound]
Activity against MMAE-resistant cells [10]: lost efficacy
IC50 ([11]; UMUC3-Luc-GFP + UMUC3-hNectin4 clone F7, ratio 4:1, 5 days, read-out: IC50 of bystander effect): 4.3 nM
Bystander effect (in words) ([11]; UMUC3-hNectin-4 cloneF7/UMUC3-Luciferase-GFP 4:1, 5 days): much less potent bystander effect
IC50 [12]: 0.35 nM
